Experimental findings from US20210170052A1, “THERAPEUTIC METHODS AND COMPOSITIONS FOR SOLID DELIVERY” (Presage Biosciences, Inc., priority 2010, published 2021) are described below.

Test [1] relates to lymphoma tumor. As to the kind of experiment: Doxorubicin delivered to a lymphoma tumor using a porous tube; fluorescence and brightfield microscopy of tumor slices. Particulars: porous tube delivery, three tumor depths. The class given is in vivo. An excerpt: Doxorubicin was delivered to a lymphoma tumor using a porous tube of the method. The tumor was then excised and sectioned. […] Regions of doxorubicin fluorescence and cell death are localized to a zone within the tumor slice, reflecting spatially constrained doxorubicin delivery.

In test [2] the test system is mouse tumor. The experiment in a line: Spatially restricted injection into a mouse tumor with indicator dyes (apoptosis signal imaging). The class given is in vivo. The following applies: excitation 640 nm, emission 720 nm of the dye, versus control. As for the experimental part: FIG. 14 depicts the use of various indicator dyes according to the method, to monitor spatially restricted delivery of compounds and resulting localized effects on regions of a tumor. A mouse tumor was injected with 1. doxorubicin; and 2. a control. Panel A illustrates excitation at 640 nm and emission at 800 nm of the dye. Panel B illustrates the doxorubicin signal (3.) observed after excitation at 500 nm and emission at 600 nm of doxorubicin. Panel C illustrates an apoptosis signal (4.) observed after excitation at 640 nm and emission at 720 nm of the dye.

In test [3] the test system is Intracranial medulloblastoma model (conditional Patchedl null) mice. The experiment in a line: Survival of intracranial medulloblastoma model mice. The class given is in vivo, mouse. The following applies: injected daily with 20 mg/kg, monitored for 50 days, versus vehicle only. As for the experimental part:
The results of the in vivo experiment depicted in FIG. 12 predicted that Shh antagonists would have a positive effect on a mouse model of cancer. Intracranial medulloblastoma model (conditional Patchedl null) mice used in this experiment develop medulloblastoma with an early onset and 100% penetrance. Accordingly, mice were injected daily with 20 mg/kg of either A) vehicle plus IPI-926 (n=12); or B) vehicle only (n=11). The mice were monitored for 50 days for survival, and the results depicted in FIG. 13.

Each structure is given as a SMILES string.

Consider `COc1cccc2c1C(=O)c1c(O)c3c(c(O)c1C2=O)C[C@@](O)(C(=O)CO)C[C@@H]3O[C@H]1C[C@H](N)[C@H](O)[C@H](C)O1` [Doxorubicin], for which the “cell death in tumor slices” value in test [1] is reported as “Cell death was observed in a localized area”. Besides, the apoptosis signal result in test [2] is “apoptosis overlaps with the region that received doxorubicin”. For the compound `CC1=C2C[C@H]3[C@@H](CC[C@@H]4C[C@H](NS(C)(=O)=O)CC[C@@]43C)[C@@H]2CC[C@@]2(C1)O[C@@H]1C[C@H](C)CN[C@H]1[C@H]2C` [IPI-926], the survival entry in test [3] is listed as “significantly increased survival”.
